Data published in patent publication US8110365B2, “Compositions and methods for detecting and treating renal injury and inflammation” (Rhode Island Hospital, priority 2006, dated 2012).
Entries after “also recorded” stand apart in the source; their conditions may differ. Read-outs that look alike come from different tables or passages of the source.

Tests used:
NFkB target genes = assay: Real time RT-PCR of NFkB target genes in TNF-a stimulated HKC cells; type: cell-based, human; conditions: HKC cells, 12 h
Description: Total RNA was extracted from approximately 1×10^6 cultured HKC cells using TRIzol solution (Invitrogen, Carlsbad, Calif.) according to the instructions specified by the manufacturer. RNA was then diluted to 3μg/μl in RNase free distilled water. The first strand cDNA was prepared using 3 μg RNA, Superscript RT reverse transcriptase (Invitrogen) and oligo (dT) primer according to the manufacture's instruction. Quantitative real time PCR was carried out on a Stratagene Mx4000® multiplex quantitative PCR system (Stratagene, La Jolla, Calif.) using primers specific for human MCP-1, RANTES, IkBa, Bcl-2 and GAPDH. All reactions were performed in triplicate with Brilliant® SYBR® Green QPCR Master Mix (Stratagene). Fluorescence values of SYBR Green I dye, representing the amount of product amplified at that point in the reaction, were recorded in real time at both the annealing step and the extension step of each cycle. The Ct value, defined as the point at which the fluorescence signal was statistically significant above background, was calculated for each amplicon in each experimental sample using Stratagene Mx4000 software. This value was then used to determine the relative amount of amplification in each sample by interpolating from the standard curve. Transcript level of each specific gene was normalized to GAPDH amplification.

NFkB p65 = assay: TNF-a induced NFkB p65 phosphorylation in HKC cells (immunoblot); type: cell-based, human; conditions: HKC cells; for TNF-a induced p65 phosphorylation at S468: TNF-a 2 ng/ml, VPA 1 mM, 10 uM for 60 minutes
Description: (§1) Human proximal TEC (HKC-8) (courtesy of Dr. L. Racusen of John Hopkins University, Baltimore, Md.) were maintained in Dulbecco's modified Eagle's medium (DMEM)/F12 supplemented with 5% fetal bovine serum (FBS). Cells were plated at approximately 70% confluence in the media containing 5% FBS for 24 h and then underwent serum starvation for another 24 h. Human recombinant HGF and human recombinant TNF-α (R&D systems, Minneapolis, Minn.) were added to the culture with fresh serum-free medium at a final concentration of 20 ng/ml and 2 ng/ml respectively, or otherwise as indicated. Cell viability was assessed by Trypan blue exclusion. At different time points, cells and conditioned media were harvested for further investigation.
(§2) After different treatments, HKC cells were washed with PBS and lysed with RIPA buffer supplemented with protease inhibitors [1% Nonidet P-40, 0.1% SDS, 100 ug/ml phenylmethysulfonyl fluoride (PMSF), 0.5% sodium deoxycholate, ImM sodium orthovanadate, 2 ug/ml aprotin, 2 ug/ml leupeptin, 5mM EDTA in PBS]. Protein concentration was determined by using a bicinchoninic acid protein assay kit (Sigma). All samples with equal amounts of total protein (50 ug/ml) were fractionated by 7.5˜15% SDS-polyacrylamide gels under reducing condition and analyzed by western immunoblot as described previously (30). The antibodies against p-GSK3b, p-NFkB p65, p-IkBa were purchased from Cell Signaling Technology (Beverly, Mass.) and those for GSK3b, hemagglutin were from Santa Cruz Biotechnology (Santa Cruz, Calif.).

b-catenin = b-catenin accumulation in HKC; type: cell-based, human
[1] = test system: rats with unilateral urethral obstruction(UUO); assay: Rats with unilateral urethral obstruction (UUO); type: in vivo, rat; conditions: for renal inflammation (ED-1 macrophage infiltration): VPA 200 mg/kg/d ip, 5 days
GSK3b and NFkB p65 = target: T1, GSK3b and NFkB p65 (Homo sapiens, UniProt P49841); assay: Co-immunoprecipitation of GSK3b and NFkB p65 in HKC cells; type: cell-based; conditions: HKC cells
T1 construct: whole cell lysates were subjected to immunoprecipitation by anti-GSK3b or anti-p65 antibody; endogenous in cells; host or cells: HKC-8
T1 sequence (P49841 whole entry): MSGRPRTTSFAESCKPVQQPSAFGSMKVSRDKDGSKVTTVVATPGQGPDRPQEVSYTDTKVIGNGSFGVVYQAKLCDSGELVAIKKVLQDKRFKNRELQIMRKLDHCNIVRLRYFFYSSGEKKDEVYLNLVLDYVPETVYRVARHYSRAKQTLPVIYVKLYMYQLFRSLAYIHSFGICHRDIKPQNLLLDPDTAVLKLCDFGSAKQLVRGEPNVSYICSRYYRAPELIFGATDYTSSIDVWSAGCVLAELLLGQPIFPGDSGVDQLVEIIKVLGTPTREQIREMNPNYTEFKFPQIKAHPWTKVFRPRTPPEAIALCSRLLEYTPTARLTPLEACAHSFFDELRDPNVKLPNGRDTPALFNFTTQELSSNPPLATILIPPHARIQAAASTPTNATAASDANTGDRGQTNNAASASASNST
Description: Immunoprecipitation was carried out by using an established method as described previously. Briefly, cells were washed with ice cold PBS and then lysed with RIPA buffer. After preclearing with normal IgG, cell lysates with equal amount of total protein (0.5 mg of protein) were incubated overnight at 4° C. with 4 μg specific agarose-conjugated antibodies. The precipitated complexes were collected, washed, and separated on SDS-polyacrylamide gels and blotted with various antibodies as indicated.

HKC cells = assay: Cell viability of HKC cells (Trypan blue exclusion); type: cell-based, human; conditions: TNF-a (2 ng/ml) treated HKC cells at 24 h
Description: as §1

GSK3b = GSK3b (Homo sapiens, UniProt P49841); assay: Inhibitory phosphorylation of GSK3b in HKC cells (immunoblot); type: cell-based; set-up: endogenous in cells; host or cells: HKC-8
GSK3b, sequence (P49841 whole entry): as above
Description: as §1, §2

[2] = kidney homogenates, immunoblot, listed as VPA

Row | TNF-a induced co-precipitation of phosphorylated p65 (Ser468) with GSK3b (GSK3b and NFkB p65; immunoprecipitation by anti-GSK3b) | TNF-a induced GSK3b to p65 interaction (GSK3b and NFkB p65; immunoprecipitation by anti-p65) | inhibitory phosphorylation of GSK3b (S9) (GSK3b) | inhibitory phosphorylation of GSK3b (S9) (GSK3b; listed as Sodium valproate) | SMILES | TNF-a induced mRNA expression of IkBa and Bcl-2 (NFkB target genes) | TNF-a induced mRNA expression of MCP-1 and RANTES (NFkB target genes) | TNF-a induced p65 phosphorylation at other sites (S276, S536) (NFkB p65) | TNF-a induced p65 phosphorylation at S468 (NFkB p65) | TNF-a induced p65 phosphorylation at S468 (NFkB p65; listed as VPA) | b-catenin accumulation (b-catenin) | renal inflammation (ED-1 macrophage infiltration) [1] | renal inflammation (ED-1 macrophage infiltration) ([1]; listed as VPA) | renal total GSK3b expression ([1]; kidney homogenates, immunoblot) | renal inhibitory phosphorylation of GSK3b [1, 2] | renal total GSK3b expression [1, 2] | cell viability / TNF-a induced apoptosis (HKC cells) | inhibitory phosphorylation of GSK3b (S9) (GSK3b; listed as Valproic acid)
1 | mimicking the action of VPA | reminiscent the effect of VPA | induced marked GSK3b phosphorylation | induced phosphorylation of GSK3b at Ser9 | CCCC(CCC)C(=O)O [valproate, Valproic acid, reference compound] | mimicked the action of HGF on the expression of these genes | mimicked the action of HGF on the expression of these genes | minimally affected phosphorylation of p65 at other sites | suppresses TNF-a elicited p65 phosphorylation at S468 | abrogates the TNF-a induced NFkB p65 phosphorylation at Ser468 in a dose dependent manner | induced b-catenin (b-Cat.) accumulation | prevented inflammatory infiltration; also recorded: markedly ameliorates renal inflammation | diminished renal inflammation | blunted induced expression of GSK3b in the diseased kidney | much greater; also recorded: enhanced its inhibitory phosphorylation | substantially suppressed total GSK3b expression | Only lithium significantly reduced cell viability | induces inhibitory phosphorylation of GSK3b at S9
2 | – | – | induced marked GSK3b phosphorylation | – | Cn1sc(=O)n(Cc2ccccc2)c1=O [TDZD-8] | – | – | – | – | – | induced b-catenin (b-Cat.) accumulation | – | – | – | – | – | Only lithium significantly reduced cell viability | –
